Reference: paper PMC3341351, “Down-Regulation of GABAA Receptor via Promiscuity with the Vasoactive Peptide Urotensin II Receptor. Potential Involvement in Astrocyte Plasticity” (PLoS ONE, 2012)
Where two headings read alike, the source gives them in different places. Where a SMILES comes first, the peptide text is derived from it. Bridges are numbered along the chain shown (N, C = ends). [ ]: non-standard residue; d: D form. pGlu = O=C1CC[C@@H](C(=O)O)N1

Assays:
Type in all cases: cell-based
[1] = molecular target: T1, α2β3γ2 GABAAR co-expressed with human UT (Homo sapiens, UniProt Q9UKP6); test: Patch-clamp of Iso-evoked current in CHO-UT co-expressing α2β3γ2 GABAAR (CHO-UT-GABAAR); conditions: for Current inhibition by GABAAR antagonists: SR95531 10^−5 M, picrotoxin 10^−4 M
T1 construct: expressed in transfected cells; host or cells: CHO-K1 stably expressing human UT (pIRES-neo2-UT), transiently nucleofected with GABAAR subunit cDNAs
T1 sequence (Q9UKP6 1-389): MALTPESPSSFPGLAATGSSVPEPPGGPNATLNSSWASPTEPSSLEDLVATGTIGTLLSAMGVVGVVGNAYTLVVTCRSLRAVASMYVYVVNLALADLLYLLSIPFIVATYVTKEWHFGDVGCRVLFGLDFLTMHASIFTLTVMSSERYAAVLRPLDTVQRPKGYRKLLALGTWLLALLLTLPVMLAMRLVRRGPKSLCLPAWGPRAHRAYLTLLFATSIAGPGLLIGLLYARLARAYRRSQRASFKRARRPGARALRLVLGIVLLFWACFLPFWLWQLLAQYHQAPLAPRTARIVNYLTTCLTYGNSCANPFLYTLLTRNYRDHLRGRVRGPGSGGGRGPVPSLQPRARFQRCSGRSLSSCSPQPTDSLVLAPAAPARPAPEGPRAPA
Experimental: CHO-K1 cell lines were obtained from American Type Culture Collection (Manassas, VA, USA). The human UT stable CHO (CHO-UT) was generously provided by Dr Christophe Dubessy (Inserm, Rouen University, France) et generated by CHO electroporation with 20 µg pIRES-neo2-UT DNA and 500 µg sterile sonicated salmon sperm DNA using the EasyJect One electroporation system (Equibio, Angleur, Belgium), followed by repetitive rounds of limiting dilution of cells in G-418 (400 µg/ml) for selection. Normal or stable CHO was grown in Ham-F12 medium supplemented with 10% FBS, 1% antibiotic-antimicotic solution and 2 mM glutamine, at 37°C in a humidified incubator with an atmosphere of 5% CO2. The stable CHO-UT medium was supplemented with the antibiotic G-418 (40 µg/ml).
(§1) For transfection, cells were trypsinized (0.05%), triturated in HamF-12 containing 10% FBS media, pelleted by centrifugation, resuspended in 100 µl solution V for nucleofection by an Amaxa Nucleofector Device (Köln, Germany; set to program U-016). Experiments were performed on normal CHO or on the stable CHO-UT cells and transiently transfected with combinations of cDNA encoding α2β3γ2, α2β3γ1, α2β1γ2, α2β3γ1, α2β3, β3γ2 (4 µg of cDNA total/transfection) GABAAR subunits. Cells were seeded on 14-mm poly-L-lysine-coated glass bottom insert dishes at 5×10^5 cells in a volume of 0.5 ml/dish. Cells were incubated overnight at 37°C in a humidified incubator (5% CO2) during 16 h before electrophysiological or immunocytochemical experiments.
(§2) GABAA receptor cDNA clones; α2, β1, β3, γ1 and γ2L engineered into the expression vector pCDM8 ([…], β1, γ2) or pcDNA/Amp (β3, γ1), were generously provided by Dr Wingrove (Merk Sharp and Dohme, Harlow, UK). To obtain β3 ^HA or γ2 ^HA epitope-tagged subunits, β3 or γ2 cDNA was amplified and the PCR product was subcloned using the SalI and NotI sites of pCMV-HA (Table S2) after digestion by the same restriction enzymes.
(§3) The conventional whole-cell configuration of the patch-clamp technique was used to study the GABA-gated currents in astrocytes and granule neurons, UT stably transfected CHO, CHO-UT, and CHO transiently transfected with diverse variants of UT and GABAAR subunits. After 24-h transfection, cell culture coverslips were placed in a small chamber (1.5 ml) on a stage of a right microscope DMLFSA (Leica, Heidelberg, Germany) and superfused continuously with the following bath solution containing (in mM): NaCl, 150; KCl, 2.5; HEPES, 5; CaCl2, 2; MgCl2, 1; glucose, 10 (pH 7.4 adjusted with NaOH). The patch pipettes were fabricated from 1.5 mm (outer diameter) soft glass tubes on a two-step vertical pipette puller (List-Medical, L/M-3P-A, Darmstadt, Germany). […] ATP and GTP were added to the internal solution used to fill electrode just before recording. All recordings were obtained at RT with cells voltage-clamped at −70 mV. The GABAA receptor agonist isoguvacine was prepared in the extracellular solution and was applied to cells by pneumatic pressure ejection. To prevent desenzitization, isoguvacine was more often ejected during 5 s at 2-min intervals. ATP, GTP, or guanosine 5′-O-(2-thiodiphosphate) (GDPβS) were administered through the patch pipette solution. We investigated the effect of competitive inhibition of GDP-GTP exchange by including GDPβS in the pipette solution (in addition to the normal amount of GTP). For GDPβS and the KIC, immediately following patch rupture, GABA current recordings were performed and the experiment was commenced after an equilibration period of 15 min.
All peptide ligands, inhibitors or allosteric modulators of the GABAA receptor function were applied via gravity through a plastic tubing positioned in the vicinity of the cell body in order to maintain a sustained perfusion. In these conditions, drugs could reach the cell of interest after 30 s of perfusion. Isoguvacine was applied focally by pneumatic pressure ejection from a micropipette.

[2] = system: α2β3γ2 GABAAR in the absence of UT; test: Patch-clamp of Iso-evoked current in CHO expressing α2β3γ2 GABAAR without UT; conditions: DMCM 10^−5 M; hUII and URP 10^−8 M; [Orn^5]-URP and palosuran 10^−6 M; Iso 10^−4 M, 2 s; n = 3–18
Experimental: as §1, §2
as §3, with “min. […]” for “min.”

[3] = molecular target: T2, GABAAR in cerebellar astrocytes (UT co-expressed) (Rattus norvegicus, UniProt P49684); test: Whole-cell patch-clamp of isoguvacine (Iso)-evoked depolarization/chloride current in cerebellar astrocytes co-cultured with granule neurons; conditions: for inhibition at 0.1 µM: rUII 10^−7 M, 40 s, Iso 10^−4 M, mean ± SEM, n = 5
T2 construct: Astrocytes, recognized by strong GFAP staining show UT immunoreactivity; endogenous in cells; host or cells: primary rat (P7 Wistar) cerebellar astrocytes co-cultured with cerebellar granule neurons
T2 sequence (P49684 1-386): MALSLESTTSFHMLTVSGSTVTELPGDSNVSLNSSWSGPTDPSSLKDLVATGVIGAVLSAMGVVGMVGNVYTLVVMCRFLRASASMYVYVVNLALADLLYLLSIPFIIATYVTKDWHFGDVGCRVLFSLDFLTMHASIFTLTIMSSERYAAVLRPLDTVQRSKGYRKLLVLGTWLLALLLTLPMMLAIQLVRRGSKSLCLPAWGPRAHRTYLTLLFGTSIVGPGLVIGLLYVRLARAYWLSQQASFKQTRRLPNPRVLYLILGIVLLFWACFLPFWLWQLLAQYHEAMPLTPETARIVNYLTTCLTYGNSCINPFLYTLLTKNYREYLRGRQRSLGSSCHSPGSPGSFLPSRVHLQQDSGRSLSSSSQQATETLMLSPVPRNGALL
Experimental: Primary Cell Culture of astrocytes and astrocyte-neurone co-culture
Primary cultures of astrocytes were prepared as previously described. Briefly, cerebellum from 7-day-old (P7) Wistar rats were collected in DMEM/Ham-F12 (2∶1, v/v) culture medium supplemented with 2 mM glutamine, 1% insulin, 5 mM HEPES, 0.4% D(+)-glucose and 1% of the antibiotic-antimycotic solution. The tissues were disaggregated mechanically with a syringue equipped with a 1-mm gauge needle, and filtered through a 100-µm pore size mesh filter (Falcon, Becton Dickinson, Grenoble, France). Dissociated cells were resuspended in culture medium supplemented with 10% heat-inactivated FBS and seeded in 150-cm^2 culture flasks (Falcon) at a density of 20×10^6 cells/flask. Cells were incubated at 37°C in a humidified atmosphere (5% CO2) and the medium was changed twice a week. When cultures were confluent, the flasks were gently shaken on an orbital shaker at […] for 2 h. Dislodged cells were discarded and a second step of purification was performed at […] for 14–16 h. Remaining adhesive cells were collected by trypsination, centrifuged (800 g, 10 min) and plated in 150-cm^2 flasks. Suspended astrocytes were harvested and seeded in 24-well poly-L-lysine-coated plates. The purity of the cultures was previously assessed by counting the percentage of astrocytes immunostained with GFAP antibodies. The enriched cultures contained >99% astrocytes.
For astrocyte-neuron co-culture, granule cell cultures were prepared from cerebella of P7 Wistar rats as described previously. Isolated cells were plated on 14-mm culture dishes coated with poly-L-lysine (5 mM) at a density of 1.5×10^6 cells/dish and incubated at 37°C in a humidified atmosphere (5% CO2) for 1 to 10 days before use. Culture medium consisted of DMEM/Ham's F12 (75%/25%) supplemented with 10% FBS, 2 mM glutamine, 5 µg/ml insulin, 25 mM KCl and 1% of antibiotic-antimycotic solution. Co-cultures are obtained by seeding granule cells (1.5×10^6 cells/ml) on cerebellar astrocytes plated in 24-well plates after 12 hours. Co-cultures are maintained in the specific medium for neuron and incubated at 37°C in an humidified atmosphere (5% CO2) for several days.
as §3, with “min. […]” for “min.”

Molecule: CCCC(C)C1(CC)C(=O)NC(=O)NC1=O (stereo not shown) [pentobarbital]
- Direct activation of chloride current ([1]; pentobarbital 10^−5 M, Figure S1A): directly activated a chloride current
- Potentiation of the Iso-evoked current ([1]; pentobarbital 10^−5 M, reversible, Figure S1A): 196.28±12.33%

Molecule: O=C(O)CN(CC(=O)O)c1ccccc1OCCOc1ccccc1N(CC(=O)O)CC(=O)O [BAPTA]
- Reduction of hUII-induced long-term current inhibition ([1]; BAPTA 10^−4 M intracellular dialysis, n = 9): 39.29±10.16%

Molecule: Br.COc1ccc(-c2ccc(=N)n(CCCC(=O)O)n2)cc1 [SR95531]
- Current inhibition by GABAAR antagonists ([1]; Figure S1A): 76.92±10.35%

Molecule: picrotoxin
- Current inhibition by GABAAR antagonists ([1]; Figure S1A): 56.76±4.33%

Molecule: CCc1c(C(=O)OC)ncc2[nH]c3cc(OC)c(OC)cc3c12 [DMCM, methyl 6,7-dimethoxy-4-ethyl-β-carboline-3-carboxylate]
- Effect on Iso-evoked current in the absence of UT [2]: induced inhibition of the current in most tested cells

Molecule: CC[C@H](C)[C@H](NC(=O)[C@@H]1CSSC[C@H](NC(=O)[C@H](CCC(=O)O)NC(=O)[C@@H]2CCCN2C(=O)[C@H](C)NC(=O)[C@@H](NC(=O)CNC(=O)[C@H](Cc2c[nH]cn2)NC(=O)[C@@H]2CCC(=O)N2)[C@@H](C)O)C(=O)N[C@@H](Cc2ccccc2)C(=O)N[C@@H](Cc2c[nH]c3ccccc23)C(=O)N[C@@H](CCCCN)C(=O)N[C@@H](Cc2ccc(O)cc2)C(=O)N1)C(=O)O [rUII] ([pGlu]HGTAPECFWKYCI-OH; disulfide 8-13)
- EC50 ([3]; astrocytes, printed with a % sign before pM, read-out: EC50 for inhibition of the Iso-evoked current): 43.6 ± 23.7 pM
- inhibition at 0.1 µM ([3]; co-cultured astrocytes, read-out: Inhibition of the amplitude of the Iso-evoked depolarization): 24.2 ± 7.5%
- inhibition at 0.1 µM ([3]; voltage clamp −60 mV, read-out: Inhibition of the amplitude of the Iso-evoked chloride current): 33 ± 8%

B1: UT^c-myc 319–389: peptidomimetic corresponding to the entire C-terminus cytosolic fragment of UT (protein, UniProt Q9UKP6 319-389, looked up, fragment)
chain: TRNYRDHLRGRVRGPGSGGGRGPVPSLQPRARFQRCSGRSLSSCSPQPTDSLVLAPAAPARPAPEGPRAPA
modifications: c-myc tag
- Effect of UT C-terminal peptidomimetic on fast and long-term effects of hUII on GABA-evoked current ([1]; UT^c-myc 319–389 expressed in CHO-UT-GABAAR, hUII 10^−8 M): completely inhibited the fast and long-term effects of hUII on the GABA-evoked current
